Holding throughout (assay type): functional
The subject of one test is Klebsiella sp. The experiment in a line: Antibacterial activity in Klebsiella sp. infected patient assessed as mortality after 28 days.
The subject of another test is Enterobacter sp. As to the kind of experiment: Antibacterial activity in Enterobacter sp. infected patient assessed as mortality after 28 days.
The subject of another test is Escherichia coli. The experiment in a line: Antibacterial activity in Escherichia coli infected patient assessed as mortality after 28 days.
The test system of another test is Proteus sp. As to the kind of experiment: Antibacterial activity in Proteus sp. infected patient assessed as mortality after 28 days.
In another test the test system is Serratia sp. As to the kind of experiment: Antibacterial activity in Serratia sp. infected patient assessed as mortality after 28 days.
Another test has as its system Pseudomonas aeruginosa. The experiment in a line: Antibacterial activity in Pseudomonas aeruginosa infected patient assessed as mortality after 28 days.

Turning to `CO/N=C(\C(=O)N[C@@H]1C(=O)N2C(C(=O)[O-])=C(C[N+]3(C)CCCC3)CS[C@H]12)c1csc(N)n1` [CEFEPIME], the Activity is 30.4% in the test on Klebsiella sp.; 21.7% in the test with Enterobacter sp.; 21.2% with Escherichia coli; 25% with Proteus sp.; 23.8% in the test on Serratia sp.; 39.1% in the test on Pseudomonas aeruginosa.
